Test results taken from patent US7566712B2, “Biaryl piperazinyl-pyridine analogues” (Neurogen Corporation, priority 2003, dated 2009).

Each compound was assayed against T1, human capsaicin receptor (Homo sapiens, UniProt Q8NER1) (assay: Calcium mobilization assay, determination of antagonist activity (Example 6)). Conditions: Table II; IC50 determined as described in Example 6.
T1 construct: pBK-CMV expression construct encoding the full length human capsaicin receptor; expressed in transfected cells
T1 sequence (Q8NER1 whole entry): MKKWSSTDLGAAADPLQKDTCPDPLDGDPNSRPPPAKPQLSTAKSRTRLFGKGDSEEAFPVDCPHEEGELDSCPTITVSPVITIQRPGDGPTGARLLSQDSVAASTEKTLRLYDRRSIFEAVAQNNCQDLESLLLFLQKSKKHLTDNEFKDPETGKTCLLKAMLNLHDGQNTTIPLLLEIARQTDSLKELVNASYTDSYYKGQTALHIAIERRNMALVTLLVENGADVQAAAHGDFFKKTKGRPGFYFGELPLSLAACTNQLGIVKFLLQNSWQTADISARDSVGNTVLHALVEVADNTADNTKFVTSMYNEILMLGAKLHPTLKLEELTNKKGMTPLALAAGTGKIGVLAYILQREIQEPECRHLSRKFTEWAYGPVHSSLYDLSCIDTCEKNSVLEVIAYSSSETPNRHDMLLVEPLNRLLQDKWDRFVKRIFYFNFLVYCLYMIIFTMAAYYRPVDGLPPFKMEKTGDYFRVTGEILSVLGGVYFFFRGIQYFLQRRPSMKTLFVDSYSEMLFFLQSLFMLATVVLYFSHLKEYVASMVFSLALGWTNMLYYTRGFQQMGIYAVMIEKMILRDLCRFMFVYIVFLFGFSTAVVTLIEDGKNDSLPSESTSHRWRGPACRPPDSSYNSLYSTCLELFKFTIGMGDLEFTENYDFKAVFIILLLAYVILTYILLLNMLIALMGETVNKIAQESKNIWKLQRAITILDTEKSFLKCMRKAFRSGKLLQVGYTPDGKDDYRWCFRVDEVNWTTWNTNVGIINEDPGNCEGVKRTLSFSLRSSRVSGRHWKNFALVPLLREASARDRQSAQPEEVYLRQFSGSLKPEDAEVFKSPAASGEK
Type: cell-based
How it was run: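 HEK293 clonal lines stably expressing full-length human capsaicin receptor, loaded with Fluo-3 AM in KRH buffer pH 7.4, 1–2 h at 37 °C. Compounds (1–5 μM final) preincubated 0.5–6 h at room temperature, then capsaicin at its EC50 added. FLIPR/Fluoroskan calcium signal; IC50 as 50% decrease of capsaicin response.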
Work on `COc1cccc(-c2cc(N3CCN(c4ncccc4C#N)C[C@H]3C)nc(N3CCOCC3)n2)c1` [Example 523, 2-{(3R)-4-[6-(3-methoxyphenyl)-2-morpholin-4-ylpyrimidin-4-yl]-3-methylpiperazin-1-yl}nicotinonitrile] yielded an IC50 of at most 1000 nM. With `Cc1cccnc1N1CCN(c2cc(-c3cccc(OC(C)C)c3)nc(N3CCOCC3)n2)[C@H](C)C1` [Example 543, 4{4-(3-isopropoxyphenyl)-6-[(2R)-2-methyl-4-(3-methylpyridin-2-yl)piperazin-1-yl]pyrimidin-2-yl}morpholine] the IC50 was at most 1000 nM. Work on `CC(=O)NC1CCN(c2nc(-c3ccc(F)c(Cl)c3)cc(N3CCN(c4ncccc4C(F)(F)F)CC3)n2)C1` (stereo not drawn) [Example 570, N-[1-(4-(3-chloro-4-fluorophenyl)-6-{4-[3-(trifluoromethyl)pyridin-2-yl]piperazin-1-yl}pyrimidin-2-yl)pyrrolidin-3-yl]acetamide] yielded an IC50 of at most 1000 nM. `COC(CN(C)c1nc(-c2ccc(F)c(Cl)c2)cc(N2CCN(c3ncccc3C(F)(F)F)CC2)n1)OC` [Example 548, 4-(3-chloro-4-fluorophenyl)-N-(2,2-dimethoxyethyl)-N-methyl-6-{4-[3-(trifluoromethyl)pyridin-2-yl]piperazin-1-yl}pyrimidin-2-amine] showed an IC50 of at most 1000 nM. `C[C@@H]1CN(c2ncccc2Cl)CCN1c1cc(-c2cccc(OC(F)(F)F)c2)nc(N2CCOCC2)n1` [Example 535, 4-{4-[(2R)-4-(3-chloropyridin-2-yl)-2-methylpiperazin-1-yl]-6-[3-(trifluoromethoxy)phenyl]pyrimidin-2-yl}morpholine] was tested, and the IC50 was at most 1000 nM. `CSc1cccc(-c2cc(N3CCN(c4ncccc4C#N)C[C@H]3C)nc(N3CCOCC3)n2)c1` [Example 536, 2-((3R)-3-methyl-4-{6-[3-(methylthio)phenyl]-2-morpholin-4-ylpyrimidin-4-yl}piperazin-1-yl)nicotinonitrile] gave an IC50 of at most 1000 nM. With `CSc1cccc(-c2cc(N3CCN(c4ncccc4Cl)C[C@H]3C)nc(N3CCOCC3)n2)c1` [Example 539, 4-{4-[(2R)-4-(3-chloropyridin-2-yl)-2-methylpiperazin-1-yl]-6-[3-(methylthio)phenyl]pyrimidin-2-yl}morpholine] the IC50 was at most 1000 nM. `Cc1ccc(-c2cc(N3CCN(c4ncccc4Cl)C[C@H]3C)nc(N3CCOCC3)n2)cc1F` [Example 496, 4-[4-[(2R)-4-(3-chloropyridin-2-yl)-2-methylpiperazin-1-yl]-6-(3-fluoro-4-methylphenyl)pyrimidin-2-yl]morpholine] was tested, and the IC50 was at most 1000 nM. `C[C@@H]1CN(c2ncccc2Cl)CCN1c1cc(-c2cccc(Cl)c2)nc(N2CCOCC2)n1` [Example 481, 4-{4-(3-chlorophenyl)-6-[(2R)-4-(3-chloropyridin-2-yl)-2-methylpiperazin-1-yl]pyrimidin-2-yl}morpholine] gave an IC50 of at most 1000 nM.

Same assay, conditions: Table II; IC50 determined as described in Example 6 (antagonist activity, calcium mobilization)
`Cc1ccc(-c2cc(N3CCN(c4ncccc4Cl)C[C@H]3C)nc(N3CCCC3)n2)cc1Cl` [Example 997, 4-(3-chloro-4-methylphenyl)-6-[(2R)-4-(3-chloropyridin-2-yl)-2-methylpiperazin-1-yl]-2-pyrrolidin-1-ylpyrimidine] was tested, and the IC50 was at most 1000 nM. With `C[C@@H]1CCCN1c1nc(-c2ccc(F)c(Cl)c2)cc(N2CCN(c3nccnc3Cl)C[C@@H]2C)n1` [Example 973, 4-(3-chloro-4-fluorophenyl)-6-[(2S)-4-(3-chloropyrazin-2-yl)-2-methylpiperazin-1-yl]-2-[(2R)-2-methylpyrrolidin-1-yl]pyrimidine] the IC50 was at most 1000 nM.

Same assay, conditions: Table II; determined as described in Example 6 (antagonist activity); "*" = 1 micromolar or less
`Cc1cc(-c2cc(N3CCN(c4ncccc4C(F)(F)F)CC3)nc(-n3c(C)ccc3C)n2)ccc1F` [Example 877, 2-(2,5-dimethyl-1H-pyrrol-1-yl)-4-(4-fluoro-3-methylphenyl)-6-{4-[3-(trifluoromethyl)pyridin-2-yl]piperazin-1-yl}pyrimidine] gave an IC50 of at most 1000 nM. `CCCN1CCN(c2nc(-c3ccc(F)c(Cl)c3)cc(N3CCN(c4ncccc4Cl)C[C@H]3C)n2)CC1` [Example 779, 4-(3-chloro-4-fluorophenyl)-6-[(2R)-4-(3-chloropyridin-2-yl)-2-methylpiperazin-1-yl]-2-(4-propylpiperazin-1-yl)pyrimidine] gave an IC50 of at most 1000 nM. In the case of `CC(C)N(C)C1CN(c2nc(-c3ccc(F)c(Cl)c3)cc(N3CCN(c4ncccc4C(F)(F)F)CC3)n2)C1` [Example 811, 1-(4-(3-chloro-4-fluorophenyl)-6-{4-[3-(trifluoromethyl)pyridin-2-yl]piperazin-1-yl}pyrimidin-2-yl)-N-isopropyl-N-methylazetidin-3-amine], the IC50 is reported as at most 1000 nM. `C[C@@H]1CN(c2ncccc2Cl)CCN1c1cc(-c2ccc(C#N)cc2)nc(S(C)(=O)=O)n1` [Example 847, 4-[6-[(2R)-4-(3-chloropyridin-2-yl)-2-methylpiperazin-1-yl]-2-(methylsulfonyi)pyrimidin-4-yl]benzonitrile] was tested, and the IC50 was at most 1000 nM. `C[C@@H]1CCCN1c1nc(-c2ccc(Cl)c(F)c2)cc(N2CCN(c3nccnc3Cl)C[C@@H]2C)n1` (relative stereo) [Example 969, rel-4-(4-chloro-3-fluorophenyl)-6-[(2R)-4-(3-chloropyrazin-2-yl)-2-methylpiperazin-1-yl]-2-[(2S)-2-methylpyrrolidin-1-yl]pyrimidine] showed an IC50 of at most 1000 nM. In the case of `COc1ncc(Cl)c(N2CCN(c3cc(-c4ccc(F)cc4)nc(N4CCCC4)n3)[C@H](C)C2)n1` [Example 967, 5-chloro-4-{(3R)-4-[6-(4-fluorophenyl)-2-pyrrolidin-1-ylpyrimidin-4-yl]-3-methylpiperazin-1-yl}-2-methoxypyrimidine], the IC50 is reported as at most 1000 nM. `COC[C@@H]1CCCN1c1nc(-c2ccc(F)cc2)cc(N2CCN(c3ncccc3Cl)C[C@H]2C)n1` [Example 843, 4-[(2R)-4-(3-chloropyridin-2-yl)-2-methylpiperazin-1-yl]-6-(4-fluorophenyl)-2-[(2S)-2-(methoxymethyl)pyrrolidin-1-yl]pyrimidine] gave an IC50 of at most 1000 nM. `C[C@@H]1CN(c2ncccc2Cl)CCN1c1cc(-c2ccc(F)cc2)nc(N2CCN3CCC[C@H]3C2)n1` [Example 890, (8aS)-2-[4-[(2R)-4-(3-chloropyridin-2-yl)-2-methylpiperazin-1-yl]-6-(4-fluorophenyl)pyrimidin-2-yl]octahydropyrrolo[1,2-a]pyrazine] showed an IC50 of at most 1000 nM. Compound `CCOC(=O)C1CCCN(c2nc(-c3ccc(F)c(Cl)c3)cc(N3CCN(c4ncccc4C(F)(F)F)CC3)n2)C1` (stereo not drawn) [Example 798, ethyl 1-(4-(3-chloro-4-fluorophenyl)-6-{4-[3-(trifluoromethyl)pyridin-2-yl]piperazin-1-yl}pyrimidin-2-yl)piperidine-3-carboxylate] has an IC50 of at most 1000 nM. In the case of `C[C@@H]1CN(c2ncccc2Cl)CCN1c1cc(-c2cccc(C#N)c2)nc(N2CCCC2)n1` [Example 868, 3-{6-[(2R)-4-(3-chloropyridin-2-yl)-2-methylpiperazin-1-yl]-2-pyrrolidin-1-ylpyrimidin-4-yl}benzonitrile], the IC50 is reported as at most 1000 nM. `C[C@H]1CN(c2ncccc2Cl)CCN1c1cc(-c2ccc(F)c(Cl)c2)nc(N2CCOCC2)n1` [Example 947, 4-{4-(3-chloro-4-fluorophenyl)-6-[(2S)-4-(3-chloropyridin-2-yl)-2-methylpiperazin-1-yl]pyrimidin-2-yl}morpholine] gave an IC50 of at most 1000 nM.

Same assay, conditions: Table II; determined as described in Example 6; class symbol
Compound `Fc1ccc(-c2nc(N3CCCCCC3)nc(N3CCN(c4ncccc4C(F)(F)F)CC3)n2)cc1Cl` [Example 265, 1-(4-(3-chloro-4-fluorophenyi)-6-{4-[3-(trifluoromethyl)pyridin-2-yl]piperazin-1-yl}-1,3,5-triazin-2-yl)azepane] has an IC50 of at most 1000 nM.

Same assay, conditions: determined as described in Example 6 (calcium mobilization, antagonist activity); Table II
For `Fc1ccc(-c2cc(N3CCN(c4ncccc4Cl)CC3)nc(N3CCCC3)n2)cc1Cl` [Example 713, 4-(3-chloro-4-fluorophenyl)-6-[4-(3-chloropyridin-2-yl)piperazin-1-yl]-2-pyrrolidin-1-ylpyrimidine], the IC50 was at most 1000 nM. `Fc1ccc(-c2cc(N3CCN(c4ncccc4C(F)(F)F)CC3)nc(N3CCC[C@H]3CN3CCCC3)n2)cc1Cl` [Example 664, 4-(3-chloro-4-fluorophenyl)-2-[(2S)-2-(pyrrolidin-1-ylmethyl)pyrrolidin-1-yl]-6-{4-[3-(trifluoromethyl)pyridin-2-yl]piperazin-1-yl}pyrimidine] showed an IC50 of at most 1000 nM. For `CC1CCCN1c1nc(-c2ccc(F)cc2)cc(N2CCN(c3ncccc3F)CC2)n1` (stereo not drawn) [Example 749, 4-(4-fluorophenyl)-6-[4-(3-fluoropyridin-2-yl)piperazin-1-yl]-2-(2-methylpyrrolidin-1-yl)pyrimidine], the IC50 was at most 1000 nM. For `Cc1cn(-c2nc(-c3cccc(Cl)c3)cc(N3CCN(c4ncccc4C(F)(F)F)CC3)n2)c(C)n1` [Example 637, 4-(3-chlorophenyl)-2-(2,4-dimethyl-1H-imidazol-1-yl)-6-(4-[3-(trifluoromethyl)pyridin-2-yl]piperazin-1-yl}pyrimidine], the IC50 was at most 1000 nM. In the case of `CCN(CC)c1nc(-c2ccc(F)c(Cl)c2)cc(N2CCN(c3ncccc3C(F)(F)F)CC2)n1` [Example 573, 4-(3-chloro-4-fluorophenyl)-N,N-diethyl-6-{4-[3-(trifluoromethyl)pyridin-2-yl]piperazin-1-yl}pyrimidin-2-amine], the IC50 is reported as at most 1000 nM. `COc1cccnc1N1CCN(c2cc(-c3ccc(F)c(Cl)c3)nc(N3CCOCC3)n2)CC1` [Example 586, 4-{4-(3-chloro-4-fluorophenyl)-6-[4-(3-methoxypyridin-2-yl)piperazan-1-yl]pyrimidin-2-yl}morpholine] gave an IC50 of at most 1000 nM. `CCN(CC)c1nc(-c2cncc(Cl)c2)cc(N2CCN(c3ncccc3C(F)(F)F)CC2)n1` [Example 595, 4-(5-chloropyridin-3-yl)-N,N-diethyl-6-{4-[3-(trifluoromethyl)pyridin-2-yl]piperazin-1-yl}pyrimidin-2-amine] showed an IC50 of at most 1000 nM.
